Data published in patent US20190358174A1, “ACTIVE AGENTS AGAINST PROTOZOA” (Christian-Albrechts-Universität zu Kiel, priority 2016, published 2019).
Like-named read-outs stand apart in the source and are kept apart here.

Key:
Gly107Ser mutant of FNT = target: T1, Gly107Ser mutant of FNT (Plasmodium falciparum, UniProt O77389, G107S); experiment: yeast test system, 14C-L-lactate uptake, FNT Gly107Ser mutant expressed in Saccharomyces cerevisiae; format: cell-based
T1 construct: expressed in transfected cells; host or cells: Saccharomyces cerevisiae W303-1A jen1Δ ady2Δ, plasmid pDR196 (PMA promoter)
T1 sequence (O77389 whole entry G107S): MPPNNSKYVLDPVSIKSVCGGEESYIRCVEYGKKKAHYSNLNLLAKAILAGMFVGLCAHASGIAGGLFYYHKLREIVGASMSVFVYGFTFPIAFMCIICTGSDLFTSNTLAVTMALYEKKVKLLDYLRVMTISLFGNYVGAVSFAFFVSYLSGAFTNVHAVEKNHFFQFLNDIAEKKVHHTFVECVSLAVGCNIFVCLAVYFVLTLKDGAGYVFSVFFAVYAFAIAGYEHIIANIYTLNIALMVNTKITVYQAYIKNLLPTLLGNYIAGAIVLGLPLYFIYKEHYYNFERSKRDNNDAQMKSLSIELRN
Text: (§1) The FNT of the wild-type plasmodium (available under accession number PF3D7_0316600 in the data bank PlasmoDB) and of the resistant plasmodia (position of the mutation in the open reading frame: guanine 319 to adenine) were expressed in the yeast Saccharomyces cerevisiae W303-1A jen1Δ ady2Δ from plasmid pDR196 (PMA promoter). In the yeast, the endogenous genes for the monocarboxylate transporter Jenlp (sequence accession No. CAA82062 NCBI) and Ady2p (sequence accession No. KZV 12856) were deleted (obtained from M. Casal, Universidade do Minho, Portugal).
(§2) This yeast was grown in SD medium with addition of adenine, histidine, leucine, tryptophan and 2% (wt/v) glucose at 30° C. up to an OD600 of 0.8 to 1.0, harvested by centrifugation and washed once with water and centrifuged down again, and suspended in 50 mM HEPES/TRIS (pH 6.8) and adjusted to an OD600 of 50±10% and stored on ice. For contacting with one of the compounds a compound of one step of a dilution series in DMSO was provided in a reaction vessel and onto this 80 μL of the yeast suspension were pipetted. After an incubation on ice for 15 to 20 min 20 μL 5 mM Na-L-lacate plus 0.04 μCi radioactively labelled L-(1-^14C) lactate was added. The lactate concentration obtained was 1 mM. After an incubation of 30 s the uptake of lacatate was stopped by a rapid dilution by means of adding of 1 ml ice cold water. From the yeast suspension diluted this way the yeast cells were brought onto a filter membrane by vacuum filtration, washed with 7 ml cold water and transferred with the filter membrane into 3 ml scintillation cocktail. After 24 h of incubation at 18° C. in the scintillation cocktail, in which the cells were lysed, the amount of radioactively labelled lactate was measured by means of a scintillation counter. The total amount of lactate which was taken up by the yeast was calculated from the measured amount of radioactively labelled lactate. As a positive control the yeast was treated equally in parallel testing with DMSO without one of the compounds and was regarded as 100% FNT activity, respectively 0% inhibition. In testings with the compound a lower amount of lactate taken up was found in comparison to the parallel positive control. As a negative control yeast was treated in parallel in which the endogenous genes for the monocarboxylate transporters Jenlp and Ady2p were deleted, but the FNT from plasmodium was not expressed. This negative control was regarded as 0% FNT activity, respectively 100% inhibition.
(§3) As a representative for a Formiate-Nitrit-Transporter protein (FNT) from protozoa, the FNT of Plasmodium falciparum as wild-type and as […] mutant was used, which were each expressed in yeast and incubated with dilutions of the compounds to be tested as described in Example 1.

FNT wild-type = target: T2, FNT wild-type (Plasmodium falciparum, UniProt O77389); experiment: yeast test system, 14C-L-lactate uptake, FNT wild-type expressed in Saccharomyces cerevisiae; format: cell-based
T2 construct: expressed in transfected cells; host or cells: Saccharomyces cerevisiae W303-1A jen1Δ ady2Δ, plasmid pDR196 (PMA promoter)
T2 sequence (O77389 whole entry): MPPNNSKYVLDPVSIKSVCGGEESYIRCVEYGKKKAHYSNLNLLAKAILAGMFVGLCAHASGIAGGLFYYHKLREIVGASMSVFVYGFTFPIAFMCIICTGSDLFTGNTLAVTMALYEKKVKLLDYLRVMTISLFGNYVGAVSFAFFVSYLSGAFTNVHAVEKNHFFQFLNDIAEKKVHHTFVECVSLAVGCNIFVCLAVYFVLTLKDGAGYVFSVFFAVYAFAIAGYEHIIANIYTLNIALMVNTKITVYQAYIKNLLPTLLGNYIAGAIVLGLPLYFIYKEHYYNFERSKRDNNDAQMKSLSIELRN
Text: as §1
as §2, with “After an incubation on ice for 15 to 20 min 20 μL 5 mM Na-L-lacate plus 0.04 μCi radioactively labelled L-(1-^14C) lactate was added.” left out
as §3

Plasmodium falciparum = experiment: growth of Plasmodium falciparum culture (parasitaemia by FACS); format: cell-based
Description: The effect of the following compounds on the growth of Plasmodium falciparum was tested using cultivated plasmodia:
The plasmodium culture was maintained in 5% 0+ erythrocytes in RPMI 1640 medium with 0.5% Albumax at 37° C. […] A change of medium was made after 24 h and the compounds were added freshly.

[1] = tested on: resistant plasmodia (FNT mutation Gly107Ser); experiment: microbe, parasite or virus in culture; format: cell-based, Plasmodium falciparum; settings: for IC50: Plasmodium falciparum, read-out: plasmodium culture IC50 against Gly107Ser mutant
[2] = yeast test system, 15 to 20 min preincubation, 1 mM lactate, pH 6.8, read-out: IC50 against FNT wild-type
[3] = Plasmodium falciparum; read-out: plasmodium culture IC50 against wild-type
[4] = Plasmodium falciparum; 48 h after addition, parasitaemia by FACS; read-out: inhibitory effect IC50 on the growth of the plasmodium culture

CC(=O)C=C(O)C(F)(F)C(F)(F)F [BH-204]
IC50 (Gly107Ser mutant of FNT; yeast test system, 15 to 20 min preincubation, 1 mM lactate, pH 6.8, read-out: IC50 against Gly107Ser mutant of FNT): 8100 nM | IC50 (FNT wild-type; [2]): 1900 nM

CC(C)(O)CC(=O)/C=C(\O)C(F)(F)C(F)(F)F [BH-262]
IC50 (Plasmodium falciparum; [3]): 10000 nM | IC50 [1]: 70000 nM

Cn1ccc(C(=O)/C=C(\O)C(F)(F)C(F)(F)F)c1 [BH-269]
IC50 (Gly107Ser mutant of FNT): 15000 nM

O=C(/C=C(\O)C(F)(F)C(F)(F)F)/C=C/c1ccccc1 [BH-292]
IC50 (Gly107Ser mutant of FNT): 25000 nM | IC50 (FNT wild-type; [2]): 260 nM

COc1ccc(C(=O)/C=C(\O)C(F)(F)C(F)(F)F)cc1 [BH-296]
inhibition of the Gly107Ser mutant (in words) (Gly107Ser mutant of FNT): inhibit the Gly107Ser mutant significantly | IC50 (Plasmodium falciparum; [3]): 3400 nM | IC50 [1]: 8900 nM | effect against the resistant parasites (in words) ([1]; pharmaceutically acceptable concentration range): effective against the resistant parasites | IC50 (FNT wild-type; [2]): 140 nM

O=C(/C=C(\O)C(F)(F)C(F)(F)F)c1ccc(Cl)cc1 [BH-301]
IC50 (Gly107Ser mutant of FNT): 5800 nM | inhibition of the Gly107Ser mutant (in words) (Gly107Ser mutant of FNT): inhibit the Gly107Ser mutant significantly | IC50 (FNT wild-type): 120 nM

O=C(/C=C(\O)C(F)(F)C(F)(F)F)c1cc2ccccc2o1 [BH-306]
IC50 (Gly107Ser mutant of FNT): 15000 nM | IC50 (FNT wild-type; [2]): 180 nM

O=C(/C=C(\O)C(F)(F)C(F)(F)F)c1ccc(Cl)cc1O [BH-317]
inhibition of the plasmodium culture (in words) (Plasmodium falciparum): effective inhibition | IC50 (Plasmodium falciparum; [3]): 370 nM | inhibition of the FNT in the yeast test system (in words) (FNT wild-type): effective inhibition | IC50 (FNT wild-type; [2]): 120 nM

COc1ccc(CCC(=O)/C=C(\O)C(F)(F)C(F)(F)F)cc1 [BH-324.2]
IC50 (Gly107Ser mutant of FNT): 6300 nM | inhibition of the Gly107Ser mutant (in words) (Gly107Ser mutant of FNT): inhibit the Gly107Ser mutant significantly | IC50 (FNT wild-type): 160 nM

CCOc1ccc(C(=O)/C=C(\O)C(F)(F)C(F)(F)F)c(O)c1 [BH-326]
inhibition of the plasmodium culture (in words) (Plasmodium falciparum): effective inhibition | IC50 (Plasmodium falciparum; [3]): 50 nM | inhibition of the FNT in the yeast test system (in words) (FNT wild-type): effective inhibition | IC50 (FNT wild-type; [2]): 240 nM

CC(C)Oc1ccc(C(=O)/C=C(\O)C(F)(F)C(F)(F)F)c(O)c1 [BH-340]
inhibition of the plasmodium culture (in words) (Plasmodium falciparum): effective inhibition | IC50 (Plasmodium falciparum; [3]): 100 nM | inhibition of the FNT in the yeast test system (in words) (FNT wild-type): effective inhibition | IC50 (FNT wild-type; [2]): 400 nM

COc1ccc(C(=O)/C=C(\O)C(F)(F)C(F)(F)C(F)(F)F)c(O)c1 [BH-362]
IC50 (Plasmodium falciparum; Plasmodium falciparum, read-out: plasmodium culture IC50 against wild-type): 570 nM | IC50 (FNT wild-type; [2]): 250 nM

O=C(/C=C(\O)C(F)(F)C(F)(F)F)c1ccc(OCc2ccccc2)cc1O [BH-388]
IC50 (FNT wild-type; [2]): 890 nM

O=C1CC(O)(C(F)(F)C(F)(F)F)Oc2ccccc21 (stereo not shown) [MMV000972, reference compound]
IC50 (Plasmodium falciparum; [4]): 1700 nM

COc1ccc2c(c1)OC(O)(C(F)(F)C(F)(F)F)CC2=O (stereo not shown) [MMV007839, reference compound]
IC50 (Plasmodium falciparum; [4]): 140 nM | IC50 (FNT wild-type; preincubation 20 min, read-out: IC50 of lactate transport): 170 nM | IC50 (FNT wild-type; preincubation 24 h prior to addition of lactate, read-out: IC50 of lactate transport): 15 nM | reversibility of FNT inhibition by washing of the cells (FNT wild-type; washing with 50 mM HEPES-Tris, pH 6.8): could not be reduced by washing
